Experimental data published in the supplement of paper PMC10307832.

What was measured:
Assay in all cases: relative viability (nuclei count vs DMSO), 5 days (fraction); higher = more cells survive
Quizartinib + Navitoclax = compound: CC(C)(C)c1cc(NC(=O)Nc2ccc(-c3cn4c(n3)sc3cc(OCCN5CCOCC5)ccc34)cc2)no1 [Quizartinib] + CC1(C)CCC(c2ccc(Cl)cc2)=C(CN2CCN(c3ccc(C(=O)NS(=O)(=O)c4ccc(N[C@H](CCN5CCOCC5)CSc5ccccc5)c(S(=O)(=O)C(F)(F)F)c4)cc3)CC2)C1 [Navitoclax] (partner 0.5 µM)
In short: (§1)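 Lung cancer cell lines were pin-tool dosed in 1536-well plates on the day after seeding, with either a lone drug or a fixed anchor-drug dose plus five library-drug doses (not always all listed) in √10 steps. Nuclei were counted on 4× images after 5 days. Relative viability is the ratio of treated-well to vehicle-well nuclei counts, with each value a median of duplicate plates.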

YM155 + Alpelisib = compound: COCC[n+]1c2c(n(Cc3cnccn3)c1C)C(=O)c1ccccc1C2=O [YM155] + Cc1nc(NC(=O)N2CCC[C@H]2C(N)=O)sc1-c1ccnc(C(C)(C)C(F)(F)F)c1 [Alpelisib] (partner 2 µM)
In short: as §1

Quizartinib + Phenformin = compound: CC(C)(C)c1cc(NC(=O)Nc2ccc(-c3cn4c(n3)sc3cc(OCCN5CCOCC5)ccc34)cc2)no1 [Quizartinib] + N=C(N)NC(=N)NCCc1ccccc1 [Phenformin] (partner 250 µM)
In short: as §1

YM155 + Luminespib = compound: COCC[n+]1c2c(n(Cc3cnccn3)c1C)C(=O)c1ccccc1C2=O [YM155] + CCNC(=O)c1noc(-c2cc(C(C)C)c(O)cc2O)c1-c1ccc(CN2CCOCC2)cc1 [Luminespib] (partner 0.01 µM)
In short: as §1

Cell Line | relative viability (Quizartinib + Navitoclax; first compound 0.001 µM) | relative viability (Quizartinib + Navitoclax; first compound 0.003162 µM) | relative viability (Quizartinib + Navitoclax; first compound 0.01 µM) | relative viability (Quizartinib + Navitoclax; first compound 0.03162 µM) | relative viability (Quizartinib + Navitoclax; first compound 0.1 µM) | relative viability (YM155 + Alpelisib; first compound 0.002 µM) | relative viability (YM155 + Alpelisib; first compound 0.006325 µM) | relative viability (YM155 + Alpelisib; first compound 0.02 µM) | relative viability (YM155 + Alpelisib; first compound 0.06325 µM) | relative viability (Quizartinib + Phenformin; first compound 0.001 µM) | relative viability (Quizartinib + Phenformin; first compound 0.003162 µM) | relative viability (Quizartinib + Phenformin; first compound 0.01 µM) | relative viability (Quizartinib + Phenformin; first compound 0.1 µM) | relative viability (YM155 + Luminespib; first compound 0.002 µM) | relative viability (YM155 + Luminespib; first compound 0.006325 µM) | relative viability (YM155 + Luminespib; first compound 0.02 µM) | relative viability (YM155 + Luminespib; first compound 0.06325 µM) | relative viability (Quizartinib + Phenformin; first compound 0.03162 µM)
SK-MES-1 | 1.05 | 1.1 | 1.35 | 1.13 | 1.26 | 0.823 | 0.905 | 1.05 | 0.715 | 0.593 | 0.636 | 0.677 | 0.612 | 0.437 | 0.359 | 0.234 | 0.169 | –
LK-2 | 0.827 | 0.803 | 1.09 | 0.77 | 0.861 | 1.17 | 1.05 | 1.13 | 1.12 | 0.243 | – | 0.47 | 0.108 | 0.249 | 0.165 | 0.21 | 0.185 | 0.138
NCI-H2085 | 1.03 | 1.09 | 1.12 | 1.15 | 1 | 0.955 | 0.833 | 0.731 | 0.559 | 0.631 | 0.648 | 0.753 | 0.574 | 0.406 | 0.474 | 0.338 | 0.369 | 0.673
NCI-H2087 | 0.971 | 0.953 | 1.06 | 1.02 | 0.962 | 0.903 | 1.06 | 1.03 | 0.822 | – | 0.429 | 0.458 | 0.516 | 0.194 | 0.17 | 0.148 | 0.149 | 0.369
NCI-H2347 | 0.675 | 0.886 | 0.91 | 0.845 | 0.994 | 1.01 | 0.896 | 0.987 | 0.67 | 0.268 | 0.359 | 0.461 | 0.497 | 0.409 | 0.41 | 0.647 | 0.368 | 0.395
HOP-62 | 1 | 0.888 | 1.16 | 1.01 | 1.1 | 1.14 | 0.921 | 0.633 | 0.775 | 0.624 | 0.625 | 0.84 | 0.666 | 0.918 | 0.907 | 0.938 | 0.906 | 0.662
SW 1573 | 1.1 | 0.864 | 0.954 | 0.981 | 0.968 | 0.73 | 0.657 | 0.875 | 0.723 | 0.355 | 0.369 | 0.397 | 0.367 | 0.246 | 0.179 | 0.17 | 0.0748 | –
NCI-H1944 | 0.888 | 1.07 | 1.06 | 1.08 | 1.07 | 0.83 | 0.756 | 0.803 | 0.905 | 0.206 | 0.209 | 0.182 | 0.173 | 0.688 | 0.637 | 0.81 | 1.16 | 0.192
HCC-44 | 0.891 | 0.952 | 1.04 | 0.955 | 0.817 | 0.749 | 0.766 | 0.813 | 0.862 | 0.203 | 0.323 | – | 0.261 | 1.04 | 1.05 | 0.92 | 0.219 | 0.169
NCI-H460 | 1 | 1.09 | 1.24 | – | 1.13 | 0.433 | 0.498 | 0.436 | 0.452 | 0.379 | 0.48 | 0.587 | 0.028 | 0.0266 | 0.0307 | 0.035 | 0.0204 | 0.0822
NCI-H1993 | 0.964 | 0.906 | 1.13 | 0.959 | 0.793 | 0.691 | 0.726 | 0.673 | 0.657 | 0.478 | 0.48 | 0.523 | 0.625 | 0.722 | 0.695 | 0.444 | 0.529 | 0.441
LOU-NH91 | 0.732 | 0.766 | 0.808 | 0.562 | 0.832 | 0.767 | 0.674 | 0.76 | 0.745 | 0.693 | 0.679 | 0.723 | 0.862 | 0.299 | 0.36 | 0.315 | 0.375 | 0.682
201T | 1.24 | 1.21 | 1.25 | 1.24 | 1.25 | 1.01 | 1.03 | 1.05 | 1.02 | 0.472 | 0.426 | 0.476 | 0.438 | 1.05 | 1.06 | 1.04 | 1.09 | 0.408
EKVX | 0.953 | 0.88 | 0.901 | 0.978 | 0.992 | 0.897 | 0.916 | 0.859 | 0.813 | 0.21 | 0.24 | 0.238 | 0.25 | 0.847 | 0.855 | 0.888 | 0.724 | 0.244
NCI-H1792 | 0.584 | 0.646 | 0.697 | 0.617 | 0.587 | 0.67 | 0.73 | 0.703 | 0.759 | 0.259 | 0.2 | 0.244 | 0.243 | 0.441 | 0.47 | 0.475 | 0.403 | 0.346
NCI-H1651 | 0.848 | 0.895 | 0.963 | 0.845 | 0.995 | 0.979 | 0.904 | 0.925 | 0.694 | 0.41 | 0.268 | 0.35 | 0.272 | 0.869 | 0.836 | 0.789 | 0.604 | 0.231
LU99A | 0.796 | 0.8 | 0.913 | 0.776 | 0.383 | 0.541 | 0.453 | 0.456 | 0.439 | 0.774 | 0.78 | 0.904 | 0.248 | 0.233 | 0.263 | 0.275 | 0.219 | 0.533
LC-2-ad | 0.317 | 0.446 | 0.518 | 0.453 | 0.394 | 0.768 | 0.977 | 1 | 0.392 | 0.498 | 0.639 | 0.579 | 0.502 | 0.942 | 0.959 | 0.869 | 0.331 | –
A-427 | 0.94 | 0.881 | 0.869 | 0.906 | 0.95 | 1.08 | 1.06 | 1.09 | 1.12 | – | 0.411 | 0.327 | 0.189 | 0.895 | 0.965 | 0.85 | 0.441 | 0.256
NCI-H2009 | 1.13 | 1.16 | 1.22 | 1.03 | 1.23 | 1.2 | 1.14 | 1.11 | 0.504 | 0.464 | 0.48 | 0.504 | 0.174 | 1.08 | 0.986 | 1.04 | 0.476 | 0.44
LCLC-97TM1 | – | 0.669 | 0.489 | 0.355 | 0.413 | 0.297 | 0.228 | 0.272 | 0.328 | 0.396 | 0.379 | 0.421 | 0.375 | 0.838 | 0.816 | 0.717 | 0.71 | 0.464
BEN | 0.0726 | 0.0683 | 0.107 | 0.051 | 0.0586 | 1.1 | 1.06 | 0.965 | 1.13 | 0.271 | 0.279 | 0.272 | 0.26 | 0.33 | 0.728 | 0.617 | 0.417 | 0.243
EMC-BAC-2 | 1.13 | 1.14 | 1.31 | 1.18 | 1.19 | 0.735 | 0.723 | 0.729 | 0.719 | 0.446 | 0.493 | 0.552 | 0.525 | 1.19 | 1.11 | 1.12 | 0.982 | –
NCI-H520 | 1.17 | 0.982 | 1.19 | 0.948 | 0.888 | 0.858 | 1 | 0.853 | 0.871 | 0.582 | 0.526 | 0.532 | 0.35 | 0.238 | 0.266 | 0.215 | 0.233 | 0.357
NCI-H1355 | 0.868 | 0.921 | 0.912 | 1 | 1 | 0.846 | 0.869 | 0.932 | 0.963 | 0.426 | 0.434 | 0.437 | 0.415 | 0.633 | 0.724 | 0.733 | 0.683 | 0.426
NCI-H1915 | 0.771 | 0.75 | 0.833 | 0.822 | 0.785 | 1.06 | 1.01 | 1.08 | 0.975 | 0.345 | 0.374 | 0.408 | 0.38 | 0.803 | 0.809 | 0.829 | 0.711 | 0.353
HARA | 0.783 | 1.14 | 1.12 | 1.14 | 1.16 | 0.876 | 0.961 | 0.842 | 0.86 | – | 0.453 | 0.489 | 0.386 | 0.683 | 0.906 | 0.95 | 0.686 | 0.445
PC-3 [JPC-3] | 0.703 | 0.859 | 0.768 | 0.835 | 0.821 | 1.02 | 1.02 | 1.07 | 0.972 | 0.453 | 0.466 | 0.469 | 0.506 | 0.654 | 0.732 | 0.673 | 0.653 | 0.481
LXF-289 | 0.804 | 0.961 | 0.976 | 0.948 | 0.912 | 1.02 | 1.04 | 0.967 | 0.939 | 0.485 | 0.496 | 0.529 | 0.539 | 0.651 | 0.683 | 0.675 | 0.504 | 0.497
NCI-H2170 | 0.765 | 0.627 | 0.715 | 0.573 | 0.665 | 0.866 | 0.855 | 0.889 | 0.877 | 0.415 | 0.432 | 0.403 | 0.378 | 0.525 | 0.751 | 0.647 | 0.596 | 0.436
